Source: patent publication US11660331B2, “Heroin vaccine” (THE SCRIPPS RESEARCH INSTITUTE, priority 2017, dated 2023)

Test system: anti-heroin polyclonal antibodies from Group G6
Test: SPR competitive binding assay, Her-BSA-loaded sensor chip (Biacore 3000)
Parameters: species or system mouse
Settings: sera from Group G6 (vaccine stored as liquid at RT for 30 days)

CN1CC[C@]23c4c5ccc(O)c4O[C@H]2[C@@H](O)C=C[C@H]3[C@H]1C5 [morphine]
cross-reactivity to the polyclonal antibodies: low cross-reactivity
